How the values were obtained:
[1] = Headspace concentration of fragrance ingredients over blotter (thermal desorption GC-MS); format: physicochemical
Description: The headspace concentration of individual ingredients of fragrance TAK, as formulated in either a conventional EdT (EdT1) or a fragrance composition of the invention (C1), was assessed by the method described below.
A 10 cm length was cut from a standard perfumers' blotter. A sample of 100µL volume was applied to the upper surface of the blotter with a syringe. The blotter was placed on a hot plate thermostatted at 32°C and left to equilibrate for 5 minutes. Two desorption tubes (6cm length 4mm internal diameter) each containing 2 cm length of Tenax TA adsorbent were fitted to the glass part of a headspace apparatus shown in figure 9. The glass part was fitted over the blotter, a metering pump was connected to one of the desorption tubes and air was drawn through the apparatus flushing the headspace over the blotter at a rate of 17mL/min. Sampling continued for about 16.5 minutes until 280mL of air had been extracted. Then the outlet desorption tube was analysed by gas chromatography as described below. The glass part was removed from the blotter which was left on the hotplate until the next sampling time when two fresh desorption tubes were fitted and the extraction procedure repeated for a further 280mL of extracted headspace.
• Initial Temp: 50°C • Initial Time: 5 min • Rate: 3°C /min • Final Temp: 250°C • Final Time: 20 min • Run Time: 91.67 min
• Column: HP-5MS 30m * 0.25mm * 0.25µm • Gas: Helium • Constant pressure 12.675 psi
• Initial Temp: -30°C • Equilibration Time: 0.05 min • Initial Time: 0.00 min • Rate 12°C / min • End Temp: 260°C • Hold Time: 10 min
Temperature program • Initial Temp: 35°C • Delay Time: 0.30 min • Initial Time: 0.00 min • Rate: 30°C / min • End Temp: 250°C • Hold Time: 5.00 min
TDU Settings • Transfer Temp: 250°C • Transfer Temp Mode: Fixed • Desorption Mode: splitless • Sample mode: Retain tube - standby cooling • Standby Temp: 50°C
Detector MS • MS 5973 • Mass range: 35 to 350 • Threshold: 150 • Mass Quad: 150°C • Mass Source: 230°C
Following the procedure of example 2, the headspace concentration of representative ingredients of fragrance COM1 was determined. COM1 was dosed at 5 and 20 % either in control EdT3 and EdT4 or in compositions of the invention C7 and C8, as shown in table 10.
The headspace concentration of individual ingredients of fragrance TAK (see Table 1), as formulated in either a conventional EdT (EdT1) or fragrance compositions of the invention (C14, C15), was assessed by the method described in example 2.

[2] = Amount of fragrance ingredients retained on paper blotter after evaporation (ethanol extraction, GC-MS); format: physicochemical
Description: A fragrance (hereafter fragrance TAK, the formulation of which is shown in table 1) was formulated in a typical Eau de Toilette (EdT1) or in fragrance compositions according to the invention (compositions C1 to C4), as shown in table 2. The amount of individual fragrance ingredients retained on paper substrate (blotter) after set time periods was assessed by the following method.
100µL samples of either EdT1 or compositions C1 to C4 were applied to 4.5cm long standard paper blotters with a microsyringe. Three replicate blotters were prepared for each extraction time. After the appropriate evaporation time each of the 3 blotters was transferred to a 30mL glass bottle. 3mL of ethanol and 50µL of a 1% solution of methyl decanoate in ethanol as an internal standard were added. The bottle was sealed and placed on a roller bed to extract the blotter for 1 hour. A sample of the extracting solution was transferred to a vial which was sealed and analysed by gas chromatography (GC 6890) with a Mass Spectrometer detector (MS 5973) using the method described below. The results of the three replicate measurements were averaged. At exact times the same extraction was repeated on the remaining blotters which were stored on a warm surface at 32°C open to the air to allow evaporation. The gas chromatography conditions were as given below.
• Initial Temp: 50°C • Initial Time: 2 min • Rate: 10°C /min • Final Temp: 280°C • Final Time: 5 min • Run Time: 30 min
• Column: HP-5MS 30m * 0.25mm * 0.25µm • Gas: Helium • Constant Pressure 18.55 psi
• Split mode Ratio 40:1 • Inlet Temp: 250°C
• MS 5973 • Mass range: 35 to 350 • Threshold: 100 • Mass Quad: 150°C • Mass Source: 230°C
To simplify the results the average amount of each fragrance ingredient from the 3 samples measured at time zero was set at 100% and all other measurements were then related to that value so tables 3 to 6 show decreasing amounts of fragrance ingredients as a percentage of the initial amount.
The method of example 1 was repeated using a commercial fragrance (hereafter fragrance COM1, the formulation of which is given in table 7) formulated in a typical Eau de Toilette (EdT2) or in fragrance compositions according to the invention (compositions C5 and C6), as shown in table 8.

## C=CC(C)(O)CCC=C(C)CC (mixture of isomers) [Ethyl Linalool, Ethyl linalool]
[1]; COM1 dosed at 20 wt%, up to 8 hours, Figures 8 to 10
  headspace concentration in composition C8 compared to control EdT4: significantly higher
[2]; Table 9, fragrance COM1 in C5, T0 + 15 min
  amount of fragrance ingredient retained on blotter (percentage of the initial amount): 80.96%
[2]; Table 9, fragrance COM1 in C5, T0 + 480 min
  amount of fragrance ingredient retained on blotter (percentage of the initial amount): 8.4%
[2]; Table 9, fragrance COM1 in C5, T0 +1440 min
  amount of fragrance ingredient retained on blotter (percentage of the initial amount): 2.22%
[2]; Table 9, fragrance COM1 in C6, T0 + 15 min
  amount of fragrance ingredient retained on blotter (percentage of the initial amount): 70.8%
[2]; Table 9, fragrance COM1 in C6, T0 + 480 min
  amount of fragrance ingredient retained on blotter (percentage of the initial amount): 6.9%
[2]; Table 9, fragrance COM1 in C6, T0 +1440 min
  amount of fragrance ingredient retained on blotter (percentage of the initial amount): 2.6%
[2]; Table 9, fragrance COM1 in EdT2, C5 or C6, T0, set at 100% (normalisation)
  amount of fragrance ingredient retained on blotter (percentage of the initial amount): 100%
[2]; Table 9, fragrance COM1 in EdT2, T0 + 15 min
  amount of fragrance ingredient retained on blotter (percentage of the initial amount): 67.48%
[2]; Table 9, fragrance COM1 in EdT2, T0 + 480 min
  amount of fragrance ingredient retained on blotter (percentage of the initial amount): 9.91%
[2]; Table 9, fragrance COM1 in EdT2, T0 +1440 min
  amount of fragrance ingredient retained on blotter (percentage of the initial amount): 7.26%

## CC/C=C\CCOC(=O)c1ccccc1O [Cis 3-hexenyl salicylate, Cis-3-hexenyl salicylate]
[1]; fragrance TAK, T0 + 8h, Figure 4
  headspace concentration in composition C1 compared to control EdT1: lower
[2]; Table 3, fragrance TAK in C1, 15 min, 32°C
  amount of fragrance ingredient retained on blotter (percentage of the initial amount): 76%
[2]; Table 3, fragrance TAK in C1, 60 min, 32°C
  amount of fragrance ingredient retained on blotter (percentage of the initial amount): 77%
[2]; Table 3, fragrance TAK in C1, 120 min, 32°C
  amount of fragrance ingredient retained on blotter (percentage of the initial amount): 75%
[2]; Table 3, fragrance TAK in C1, 240 min, 32°C
  amount of fragrance ingredient retained on blotter (percentage of the initial amount): 73%
[2]; Table 3, fragrance TAK in C1, 480 min, 32°C
  amount of fragrance ingredient retained on blotter (percentage of the initial amount): 60%
[2]; Table 3, fragrance TAK in EdT1, 15 min, 32°C
  amount of fragrance ingredient retained on blotter (percentage of the initial amount): 96%
[2]; Table 3, fragrance TAK in EdT1, 60 min, 32°C
  amount of fragrance ingredient retained on blotter (percentage of the initial amount): 87%
[2]; Table 3, fragrance TAK in EdT1, 120 min, 32°C
  amount of fragrance ingredient retained on blotter (percentage of the initial amount): 85%
[2]; Table 3, fragrance TAK in EdT1, 240 min, 32°C
  amount of fragrance ingredient retained on blotter (percentage of the initial amount): 80%
[2]; Table 3, fragrance TAK in EdT1, 480 min, 32°C
  amount of fragrance ingredient retained on blotter (percentage of the initial amount): 32%
[2]; Table 3, fragrance TAK in EdT1 or C1, T0, set at 100% (normalisation)
  amount of fragrance ingredient retained on blotter (percentage of the initial amount): 100%
[2]; Table 4, fragrance TAK in C2, 15 min, 32°C
  amount of fragrance ingredient retained on blotter (percentage of the initial amount): 99%
[2]; Table 4, fragrance TAK in C2, 480 min, 32°C
  amount of fragrance ingredient retained on blotter (percentage of the initial amount): 63%
[2]; Table 4, fragrance TAK in EdT1, 15 min, 32°C
  amount of fragrance ingredient retained on blotter (percentage of the initial amount): 84%
[2]; Table 4, fragrance TAK in EdT1, 480 min, 32°C
  amount of fragrance ingredient retained on blotter (percentage of the initial amount): 32%
[2]; Table 4, fragrance TAK in EdT1 or C2, T0, set at 100% (normalisation)
  amount of fragrance ingredient retained on blotter (percentage of the initial amount): 100%
[2]; Table 5, fragrance TAK in C3, 15 min, 32°C
  amount of fragrance ingredient retained on blotter (percentage of the initial amount): 78%
[2]; Table 5, fragrance TAK in C3, 60 min, 32°C
  amount of fragrance ingredient retained on blotter (percentage of the initial amount): 84%
[2]; Table 5, fragrance TAK in C3, 120 min, 32°C
  amount of fragrance ingredient retained on blotter (percentage of the initial amount): 83%
[2]; Table 5, fragrance TAK in C3, 240 min, 32°C
  amount of fragrance ingredient retained on blotter (percentage of the initial amount): 82%
[2]; Table 5, fragrance TAK in C3, 480 min, 32°C
  amount of fragrance ingredient retained on blotter (percentage of the initial amount): 61%
[2]; Table 5, fragrance TAK in C3, 1440 min, 32°C
  amount of fragrance ingredient retained on blotter (percentage of the initial amount): 50%
[2]; Table 5, fragrance TAK in EdT1, 15 min, 32°C
  amount of fragrance ingredient retained on blotter (percentage of the initial amount): 96%
[2]; Table 5, fragrance TAK in EdT1, 60 min, 32°C
  amount of fragrance ingredient retained on blotter (percentage of the initial amount): 87%
[2]; Table 5, fragrance TAK in EdT1, 120 min, 32°C
  amount of fragrance ingredient retained on blotter (percentage of the initial amount): 85%
[2]; Table 5, fragrance TAK in EdT1, 240 min, 32°C
  amount of fragrance ingredient retained on blotter (percentage of the initial amount): 80%
[2]; Table 5, fragrance TAK in EdT1, 480 min, 32°C
  amount of fragrance ingredient retained on blotter (percentage of the initial amount): 32%
[2]; Table 5, fragrance TAK in EdT1, 1440 min, 32°C
  amount of fragrance ingredient retained on blotter (percentage of the initial amount): 14%
[2]; Table 5, fragrance TAK in EdT1 or C3, T0, set at 100% (normalisation)
  amount of fragrance ingredient retained on blotter (percentage of the initial amount): 100%
[2]; Table 6, fragrance TAK in C4, 15 min, 32°C
  amount of fragrance ingredient retained on blotter (percentage of the initial amount): 92%
[2]; Table 6, fragrance TAK in C4, 60 min, 32°C
  amount of fragrance ingredient retained on blotter (percentage of the initial amount): 84%
[2]; Table 6, fragrance TAK in C4, 120 min, 32°C
  amount of fragrance ingredient retained on blotter (percentage of the initial amount): 93%
[2]; Table 6, fragrance TAK in C4, 240 min, 32°C
  amount of fragrance ingredient retained on blotter (percentage of the initial amount): 94%
[2]; Table 6, fragrance TAK in C4, 480 min, 32°C
  amount of fragrance ingredient retained on blotter (percentage of the initial amount): 65%
[2]; Table 6, fragrance TAK in EdT1, 15 min, 32°C
  amount of fragrance ingredient retained on blotter (percentage of the initial amount): 96%
[2]; Table 6, fragrance TAK in EdT1, 60 min, 32°C
  amount of fragrance ingredient retained on blotter (percentage of the initial amount): 87%
[2]; Table 6, fragrance TAK in EdT1, 120 min, 32°C
  amount of fragrance ingredient retained on blotter (percentage of the initial amount): 85%
[2]; Table 6, fragrance TAK in EdT1, 240 min, 32°C
  amount of fragrance ingredient retained on blotter (percentage of the initial amount): 80%
[2]; Table 6, fragrance TAK in EdT1, 480 min, 32°C
  amount of fragrance ingredient retained on blotter (percentage of the initial amount): 32%
[2]; Table 6, fragrance TAK in EdT1 or C4, T0, set at 100% (normalisation)
  amount of fragrance ingredient retained on blotter (percentage of the initial amount): 100%
